Measurements taken from US9815796B2 (Merck Sharp & Dohme Corp., priority 2013, dated 2017).
Like-named read-outs stand apart in the source and are kept apart here.

Tests used:
[1] = target: Rhesus PDE2A3 (Macaca mulatta, UniProt B3VTJ2); assay: PDE2 fluorescence polarization (IMAP FP) inhibition assay, rhesus enzyme; assay type: biochemical, rhesus macaque
How it was run: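 IMAP FP (mP from parallel and perpendicular fluorescence against substrate-only control) was read ≥1 h after adding binding reagent. The preceding 60 min room-temperature reaction contained FAM-cAMP (50 nM) and cGMP (1 uM) in pH 7.2 Tris buffer with MgCl2 and DTT. Enzyme was supernatant of sonicated AD293 cells expressing rhesus PDE2A3; compounds were 3-fold titrated, DMSO 1% final.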

[2] = target: human PDE2A1 (Homo sapiens (Human), UniProt O00408); assay: IMAP FP PDE selectivity panel, human PDE2A1; assay type: biochemical
How it was run: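 IMAP FP format: substrate 50 nM FAM-cAMP plus 1000 nM cGMP, enzyme (insect-cell GST-tagged human PDE2A1) at ~20% conversion, 60 min reaction at room temperature. Apparent inhibition constants calculated from parallel/perpendicular fluorescence with KM 10,000 nM.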

[3] = Rhesus PDE2, Lab A, read-out: Rhesus PDE2 Ki (nM) - Lab A
[4] = Human PDE2, Lab A, read-out: Human PDE2 Ki (nM) - Lab A
[5] = Rhesus PDE2, Lab B, read-out: Rhesus PDE2 Ki (nM) - Lab B
[6] = Human PDE2, Lab B, read-out: Human PDE2 Ki (nM) - Lab B

Sequence of human PDE2A1 (O00408 other isoform, or with tags, fused parts or gaps): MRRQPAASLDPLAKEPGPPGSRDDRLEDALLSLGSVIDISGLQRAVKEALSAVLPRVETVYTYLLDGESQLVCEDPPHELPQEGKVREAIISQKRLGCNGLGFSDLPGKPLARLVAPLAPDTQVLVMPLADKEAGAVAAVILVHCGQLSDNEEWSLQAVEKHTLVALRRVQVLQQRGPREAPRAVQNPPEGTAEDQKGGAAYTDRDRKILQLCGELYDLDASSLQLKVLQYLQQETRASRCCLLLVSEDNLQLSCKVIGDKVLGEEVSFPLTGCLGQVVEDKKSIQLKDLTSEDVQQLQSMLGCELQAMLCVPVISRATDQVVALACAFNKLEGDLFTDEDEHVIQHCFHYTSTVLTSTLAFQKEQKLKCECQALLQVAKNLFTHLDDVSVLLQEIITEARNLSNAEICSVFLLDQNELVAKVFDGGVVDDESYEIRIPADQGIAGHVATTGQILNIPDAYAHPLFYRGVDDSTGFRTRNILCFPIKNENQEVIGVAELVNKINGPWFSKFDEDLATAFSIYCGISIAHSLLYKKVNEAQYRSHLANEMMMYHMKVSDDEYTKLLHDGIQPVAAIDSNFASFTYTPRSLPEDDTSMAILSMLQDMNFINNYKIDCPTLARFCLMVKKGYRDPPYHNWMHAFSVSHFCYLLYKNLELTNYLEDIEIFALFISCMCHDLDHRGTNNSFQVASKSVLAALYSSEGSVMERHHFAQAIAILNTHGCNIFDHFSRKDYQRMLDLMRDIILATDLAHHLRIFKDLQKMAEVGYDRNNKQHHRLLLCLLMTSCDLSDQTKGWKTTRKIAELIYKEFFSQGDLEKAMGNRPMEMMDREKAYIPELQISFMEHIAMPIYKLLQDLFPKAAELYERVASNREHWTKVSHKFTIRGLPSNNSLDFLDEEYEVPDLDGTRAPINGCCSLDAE
Sequence of Rhesus PDE2A3 (B3VTJ2 1-941): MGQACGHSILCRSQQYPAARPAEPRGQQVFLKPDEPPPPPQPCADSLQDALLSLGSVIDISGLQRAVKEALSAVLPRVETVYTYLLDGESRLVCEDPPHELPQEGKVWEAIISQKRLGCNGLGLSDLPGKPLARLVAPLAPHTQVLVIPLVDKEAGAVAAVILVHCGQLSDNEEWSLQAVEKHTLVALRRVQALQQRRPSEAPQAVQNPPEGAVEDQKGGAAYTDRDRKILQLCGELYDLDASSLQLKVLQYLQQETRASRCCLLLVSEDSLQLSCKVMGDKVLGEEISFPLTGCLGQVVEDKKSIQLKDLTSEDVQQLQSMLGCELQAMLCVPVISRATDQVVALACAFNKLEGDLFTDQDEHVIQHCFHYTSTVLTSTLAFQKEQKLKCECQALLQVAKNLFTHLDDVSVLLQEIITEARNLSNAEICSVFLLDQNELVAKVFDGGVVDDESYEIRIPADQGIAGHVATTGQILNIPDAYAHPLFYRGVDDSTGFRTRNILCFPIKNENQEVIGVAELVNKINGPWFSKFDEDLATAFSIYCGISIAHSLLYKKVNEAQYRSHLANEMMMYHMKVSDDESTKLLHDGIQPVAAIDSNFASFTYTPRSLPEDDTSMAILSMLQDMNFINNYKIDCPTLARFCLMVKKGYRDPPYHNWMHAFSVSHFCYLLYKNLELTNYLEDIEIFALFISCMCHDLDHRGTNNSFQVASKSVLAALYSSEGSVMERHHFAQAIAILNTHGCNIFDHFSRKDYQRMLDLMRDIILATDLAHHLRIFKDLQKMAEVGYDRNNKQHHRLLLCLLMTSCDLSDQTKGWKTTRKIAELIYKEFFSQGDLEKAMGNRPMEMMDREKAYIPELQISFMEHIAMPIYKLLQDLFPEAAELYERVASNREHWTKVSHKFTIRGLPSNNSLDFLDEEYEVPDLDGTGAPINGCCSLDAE

Structure (SMILES) | Ki [1, 3] | Ki [2, 4] | Ki [1, 5] | Ki [2, 6]
CCc1c(C(=O)N[C@H](C)c2ccc(C(F)(F)F)cc2)nc[nH]c1=O [Example 332, (R)-5-ethyl-6-oxo-N-(1-(4-(trifluoromethyl)phenyl)ethyl)-1,6-dihydropyrimidine-4-carboxamide] | 2900 nM | 2270 nM |  | 
COc1ccc(Cc2nc(C(=O)N[C@@H](c3ccc(OC(F)(F)F)cc3)C(C)(C)C)cc(=O)[nH]2)cc1 [Example 467, N-{(1R)-2,2-dimethyl-1-[4-(trifluoromethoxy)phenyl]propyl}-2-(4-methoxybenzyl)-6-oxo-1,6-dihydropyrimidine-4-carboxamide] |  |  | 0.62 nM | 0.49 nM
COc1ccc(Cc2nc(C(=O)N[C@@H](c3ccc(OC(F)(F)F)c(F)c3)C(C)C)cc(=O)[nH]2)cc1F [Example 515, 2-(3-fluoro-4-methoxybenzyl)-N-{(1R)-1-[3-fluoro-4-(trifluoromethoxy)phenyl]-2-methylpropyl}-6-oxo-1,6-dihydropyrimidine-4-carboxamide] |  |  | 1.1 nM | 1 nM
Cc1nc(C(=O)NC2(c3ccc(S(F)(F)(F)(F)F)cc3)CC2)cc(=O)[nH]1 [Example 622, 2-methyl-6-oxo-N-{1-[4-(pentafluoro-λ^6-sulfanyl)phenyl]cyclopropyl}-1,6-dihydropyrimidine-4-carboxamide] |  |  | 32 nM | 42 nM
O=C(NC1(c2ccc(OC(F)(F)F)cc2)CC1)c1cc(=O)[nH]c(C2CC2)n1 [Example 299, 2-cyclopropyl-6-oxo-N-{1-[4-(trifluoromethoxy)phenyl]cyclopropyl}-1,6-dihydropyrimidine-4-carboxamide] | 14 nM | 9.1 nM |  | 
C[C@@H](NC(=O)c1cc(=O)[nH]c(C2CC2)n1)c1ccc(OC(F)(F)F)cc1F [Example 297, 2-cyclopropyl-N-{(1R)-1-[2-nuoro-4-(trifluoromethoxy)phenyl]ethyl}-6-oxo-1,6-dihydropyrimidine-4-carboxamide] | 30 nM | 16 nM |  | 
COc1cccc(Cc2nc(C(=O)N[C@H](C)c3ccc(C(F)(F)F)cc3)cc(=O)[nH]2)c1 [Example 140, 2-(3-methoxybenzyl)-6-oxo-N-{(1R)-1-[4-(trifluoromethyl)phenyl]ethyl}-1,6-dihydropyrimidine-4-carboxamide] | 6.5 nM | 5.1 nM |  | 
O=C(N[C@@H](c1ccc(OC(F)F)cc1)C1CC1)c1cc(=O)[nH]c(-c2ccccc2)n1 [Example 448, N-{(R)-cyclopropyl[4-(difluoromethoxy)phenyl]methyl}-6-oxo-2-phenyl-1,6-dihydropyrimidine-4-carboxamide] |  |  | 13 nM | 12 nM
O=C(NC1(c2ccc(OC(F)(F)F)c(F)c2)CC1)c1cc(=O)[nH]c(-c2ccccc2)n1 [Example 157, N-{1-[3-fluoro-4-(trifluoromethoxy)phenyl]cyclopropyl}-6-oxo-2-phenyl-1,6-dihydropyrimidine-4-carboxamide] | 4.8 nM | 3.1 nM |  | 
CC[C@@H](NC(=O)c1cc(=O)[nH]c(Cc2ccc(OC)cc2)n1)c1ccc(S(F)(F)(F)(F)F)cc1 [Example 482, 2-(4-methoxybenzyl)-6-oxo-N-{(1R)-1-[4-(pentafluoro-λ^6-sulfanyl)phenyl]propyl}-1,6-dihydropyrimidine-4-carboxamide] |  |  | 3.3 nM | 3.4 nM
O=C(NCc1ccc(-c2ccccc2)cc1)c1cc(=O)[nH]c(-c2ccccc2)n1 [Example 372, N-(biphenyl-4-ylmethyl)-6-oxo-2-phenyl-1,6-dihydropyrimidine-4-carboxamide] | ~149 nM |  |  | ~661 nM
CC[C@@H](NC(=O)c1cc(=O)[nH]c(-c2ccccc2)n1)c1ccc(S(F)(F)(F)(F)F)cc1 [Example 386, 6-oxo-N-{(1R)-1-[4-(pentafluoro-λ^6-sulfanyl)phenyl]propyl}-2-phenyl-1,6-dihydropyrimidine-4-carboxamide] |  |  | 8.1 nM | 6.5 nM
Cc1nc(C(=O)N[C@@H](c2ccc(C(F)(F)F)cc2)C2CC2)cc(=O)[nH]1 [Example 69, N-{(R)-cyclopropyl[4-(trifluoromethyl)phenyl]methyl}-2-methyl-6-oxo-1,6-dihydropyrimidine-4-carboxamide] | 23 nM | 18 nM |  | 
Cc1nc(C(=O)N[C@@H](c2ccc(C3CC3)cc2)C(C)(C)C)cc(=O)[nH]1 [Example 63, (R)-N-(1-(4-cyclopropylphenyl)-2,2-dimethylpropyl)-2-methyl-6-oxo-1,6-dihydropyrimidine-4-carboxamide] |  |  | 1.9 nM | 2 nM

Second part, the compound after the results:

Ki [1, 3] | Ki [2, 4] | Ki [1, 5] | Ki [2, 6] | Structure (SMILES)
55 nM | 33 nM |  |  | C[C@@H](NC(=O)c1cc(=O)[nH]c(Cc2cccnc2)n1)c1ccc(C(F)(F)F)cc1 [Example 6, 6-oxo-2-(pyridin-3-ylmethyl)-N-{(1R)-1-[4-(trifluoromethyl)phenyl]ethyl}-1,6-dihydropyrimidine-4-carboxamide]
 |  | 13 nM | 12 nM | Cc1nc(C(=O)N[C@@H](c2ccc(C(F)(F)F)c(F)c2)C2(C)CC2)cc(=O)[nH]1 [Example 613, N-[(R)-[3-fluoro-4-(trifluoromethyl)phenyl](1-methylcyclopropyl)methyl]-2-methyl-6-oxo-1,6-dihydropyrimidine-4-carboxamide]
51 nM | 35 nM |  |  | CC(NC(=O)c1cc(=O)[nH]c(-c2ccccc2)n1)c1ccc(C(F)(F)F)cc1Cl (stereo not drawn) [Example 147, N-{1-[2-chloro-4-(trifluoromethyl)phenyl]ethyl}-6-oxo-2-phenyl-1,6-dihydropyrimidine-4-carboxamide]
1.2 nM |  | 1.6 nM | 1.5 nM | CC(C)[C@@H](NC(=O)c1cc(=O)[nH]c(-c2ncccn2)n1)c1ccc(S(F)(F)(F)(F)F)cc1 [Example 265, N-{(1R)-2-methyl-1-[4-(pentafluoro-λ^6-sulfanyl)phenyl]propyl}-6-oxo-1,6-dihydro-2,2′-bipyrimidine-4-carboxamide]
5.2 nM | 2.6 nM |  |  | C[C@@H](NC(=O)c1cc(=O)[nH]c(-c2ccccc2)n1)c1ccc(C(F)(F)F)c(F)c1 [Example 148, N-{(1R)-1-[3-fluoro-4-(trifluoromethyl)phenyl]ethyl}-6-oxo-2-phenyl-1,6-dihydropyrimidine-4-carboxamide]
2 nM |  | 4 nM | 3.6 nM | CC(C)[C@@H](NC(=O)c1cc(=O)[nH]c(C2CC2)n1)c1ccc(C(F)(F)F)c(F)c1 [Example 251, 2-cyclopropyl-N-{(1R)-1-[3-fluoro-4-(trifluoromethyl)phenyl]-2-methylpropyl}-6-oxo-1,6-dihydropyrimidine-4-carboxamide]
8.8 nM |  | 12 nM | 15 nM | C[C@@H](NC(=O)c1cc(=O)[nH]c(-c2ncccn2)n1)c1ccc(C(F)(F)F)c(F)c1 [Example 98, N-{(1R)-1-[3-fluoro-4-(trifluoromethyl)phenyl]ethyl}-6-oxo-1,6-dihydro-2,2′-bipyrimidine-4-carboxamide]
1.5 nM |  | 1.9 nM | 2.1 nM | CC[C@@H](NC(=O)c1cc(=O)[nH]c(-c2ncccn2)n1)c1ccc(SC(F)(F)F)c(F)c1 [Example 263, N-[(1R)-1-{3-fluoro-4-[(trifluoromethyl)sulfanyl]phenyl}propyl]-6-oxo-1,6-dihydro-2,2′-bipyrimidine-4-carboxamide]
